In patent US20240238201A1, “LIPOSOME CARRIER-BASED MULTI-TARGET COMPLEX, DRUG DELIVERY PLATFORM CONTAINING THE SAME, AND APPLICATION THEREOF” (HANGZHOU XINGAO BIOTECHNOLOGY CO., LTD., priority 2021, published 2024):

Columns and labels:
[1] = system: mouse melanoma cell line B16F0; assay: Subcutaneous graft tumors of mouse melanoma cell line B16F0 in C57BL/6 mice; assay type: in vivo; settings: intraperitoneal once a day for 21 days; for Average tumor weight (g): doses of Table 1, n = 10, mean ± SD; for Average tumor suppression rate (%): doses of Table 1, vs negative control
Protocol: (§1) Specie and strain: BalB/C ordinary mice and C57BL/6 ordinary mice.
(§2) Route of administration: intraperitoneal injection.
(§3) Dose of the novel multi-target immune complex: 200 μL/each;
(§4) Dosing frequency: once a day for 21 consecutive days;
(§5) Number of animals per group: 10.
(§6) Used herein are mouse colorectal cancer cell line CT26, mouse breast cancer cell line 4T1 and mouse melanoma cell line B16F10, which were purchased from the cell bank of Chinese Academy of Sciences.
(§7) Cancer cells were cultured, passaged, collected at the logarithmic phase of cells, and prepared into a cell suspension at a concentration of (1.0×10^7) per ml. Mice were injected with 0.2 ml of the cell suspension at the axilla of the right forelimb (cell number 2.0×10^6 cells/each), and tumorigenicity was successful in about 8 days.
(§8) These mice were randomly divided into 11 groups equally, namely, group A: negative control group (PBS group), group B: positive control (cGAMP) group (dose: 10 mg/kg), group C: ENPP1-YZ1 group (dose: 5 mg/kg), group D: ENPP1-YZ2 group (dose: 5 mg/kg), group E: anti-PD-L1 VHH group (dose: 2.5 mg/kg), group F: anti-CD47 VHH group (dose: 2.5 mg/kg), group G: complex I group, group H: complex II group, group I: complex III group, group J: complex IV group, and group K: complex V group. The mice were administered once a day for 21 days. After 21 days, the mice were executed, the tumor weight was weighed, and the tumor inhibition rate was calculated by [1-average tumor weight of experimental groups (groups B, C, D, E, F, G, H, I, J, and K)/average tumor weight of group A]×100%.
(§9) The mouse colorectal cancer cell line CT26 was prepared and injected into BalB/C ordinary mice. The mouse breast cancer cell line 4T1 was prepared and injected into BalB/C ordinary mice. The melanoma cell line B16F0 was prepared and injected into C57BL/6 ordinary mice. The anti-tumor effects of different drugs were observed.
(§10) Data were expressed as x±s and processed using a SPSS 10.0 software. One-way ANOVA test was used to compare the significance of the differences in tumor weight between groups, with a significance level a=0.05.

[2] = system: mouse breast cancer cell line 4T1; assay: Subcutaneous graft tumors of mouse breast cancer cell line 4T1 in BalB/C mice, with lung metastasis nodules; assay type: in vivo; settings: for Average tumor weight (g) / Average tumor suppression rate (%) / Number of metastatic lung nodules: 4T1 in BalB/C mice; for Average tumor weight (g) / Average tumor suppression rate (%): intraperitoneal once a day for 21 days; for Average tumor weight (g): doses of Table 1, n = 10, mean ± SD; for Average tumor suppression rate (%): doses of Table 1, vs negative control; for Number of metastatic lung nodules: lungs after 21 days of dosing, negative control 35; for number of lung tumor nodules compared with the model group (in words): 4T1 breast cancer lung metastasis, lungs fixed with 4% paraformaldehyde
Protocol: as §1, §2, §3, §4, §5, §6, §7, §8, §9, §10
Dissections were performed on mice that had been executed for the 4T1 breast cancer study, where the lung tissues were carefully peeled off and photographed for observation after fixation with 4% paraformaldehyde. It could be clearly seen that the lungs of the mice in the model group were black and existed multiple white tumor nodules with various sizes on the surface. […] By statistical analysis of the tumor nodules in the lung tissues of mice, the results of the efficacy of inhibiting the lung metastasis of breast cancer cells were shown in Table 3.

[3] = system: murine colorectal cancer cell CT26; assay: Subcutaneous graft tumors of murine colorectal cancer cell CT26 in BalB/C mice; assay type: in vivo, mouse; settings: intraperitoneal once a day for 21 days; for Average tumor weight (g): doses of Table 1, n = 10, mean ± SD; for Average tumor suppression rate (%): doses of Table 1, vs negative control
Protocol: as §1, §2, §3, §4, §5, §6, §7, §8, §9, §10

2-[(4-methyl-(thiazolo[4,5-B]pyridinyl)-2-thio)methyl]-7-fluoro quinazoline-4(3H)-one [ENPP1-YZ2]
Average tumor weight (g) [1]: 0.926 ± 0.227 (g)
Average tumor suppression rate (%) [1]: 61.2%
Average tumor weight (g) [2]: 0.852 ± 0.223 (g)
Average tumor suppression rate (%) [2]: 62.5%
Number of metastatic lung nodules [2]: 20
Average tumor weight (g) [3]: 0.805 ± 0.218 (g)
Average tumor suppression rate (%) [3]: 64.5%

COc1ccc2[nH]c(SCc3nc4cc(F)ccc4c(=O)[nH]3)nc2n1 [ENPP1-YZ1, 2-[(5-methoxy-(imidazo[4,5-B]pyridinyl)-2-thio)methyl]-7-fluoroquinazoline-4(3H)-one]
Average tumor weight (g) [1]: 0.943 ± 0.208 (g)
Average tumor suppression rate (%) [1]: 60.5%
Average tumor weight (g) [2]: 0.898 ± 0.136 (g)
Average tumor suppression rate (%) [2]: 60.5%
Number of metastatic lung nodules [2]: 21
Average tumor weight (g) [3]: 0.816 ± 0.203 (g)
Average tumor suppression rate (%) [3]: 63.9%

Nc1nc2c(ncn2[C@@H]2O[C@@H]3COP(=O)(O)O[C@H]4[C@@H](O)[C@H](n5cnc6c(N)ncnc65)O[C@@H]4COP(=O)(O)O[C@@H]2[C@@H]3O)c(=O)[nH]1 [cGAMP, cyclic dinucleotide 2′,3′-cGAMP, reference compound]
Average tumor weight (g) [1]: 0.808 ± 0.137 (g)
Average tumor suppression rate (%) [1]: 66.1%
number of lung tumor nodules compared with the model group (in words) [2]: a decrease in the number of tumor nodules
Average tumor weight (g) [2]: 0.775 ± 0.221 (g)
Average tumor suppression rate (%) [2]: 65.9%
Number of metastatic lung nodules [2]: 12
Average tumor weight (g) [3]: 0.706 ± 0.152 (g)
Average tumor suppression rate (%) [3]: 68.8%

B1: Anti-CD47 VHH: anti-CD47 nanobody, SEQ ID NO: 2, 6His-tagged, expressed in E. coli (protein)
VHH: QVQLVESGGGLVEPGGSLRLSCAASGIIFKINDMGWYRQAPGKRREWVAASTGGDEAIYRDSVKDRFTISRDAKNSVFLQMNSLKPEDTAVYYCTAVISTDRDGTEWRRYWGQGTQVTVSS
modifications: 6His tag
Average tumor weight (g) [1]: 1.809 ± 0.217 (g)
Average tumor suppression rate (%) [1]: 24.2%
number of lung tumor nodules compared with the model group (in words) [2]: a small decrease in the number of tumor nodules
Average tumor weight (g) [2]: 1.805 ± 0.176 (g)
Average tumor suppression rate (%) [2]: 20.2%
Number of metastatic lung nodules [2]: 25
Average tumor weight (g) [3]: 1.807 ± 0.187 (g)
Average tumor suppression rate (%) [3]: 20.2%

B2: Anti-PD-L1 VHH: anti-PD-L1 nanobody, SEQ ID NO: 1, 6His-tagged, expressed in E. coli (protein)
VHH: QVQLQESGGGLVQTGGSLRLSCAASGSTVSSSMMAWWRQTPGNQRELVALVASGNNTNYVDSVKGRFTVSRDNAKNTMYLQMNSLKPEDTAVYYCRILSVNGIWYWGQGTQVTVSS
modifications: 6His tag; Aritifical sequence
Average tumor weight (g) [1]: 1.758 ± 0.212 (g)
Average tumor suppression rate (%) [1]: 26.3%
number of lung tumor nodules compared with the model group (in words) [2]: a small decrease in the number of tumor nodules
Average tumor weight (g) [2]: 1.752 ± 0.214 (g)
Average tumor suppression rate (%) [2]: 22.9%
Number of metastatic lung nodules [2]: 27
Average tumor weight (g) [3]: 1.735 ± 0.206 (g)
Average tumor suppression rate (%) [3]: 23.4%
